Patent publication US20060270694A1, “JAK kinase inhibitors and their uses” (Rigel Pharmaceuticals, Inc., priority 2005, published 2006)

Test system: JAK kinase (JAK1 and JAK3)
Assay: IL-4 activation assay: CD23 upregulation in IL-4 stimulated Ramos B-cells, FACS
Format: cell-based, human
Procedure: The selectivity of the compounds illustrated in TABLES 1 and 2 for JAK kinases as compared to Syk kinase was confirmed in cellular assays designed to test for JAK and Syk inhibition. Briefly, JAK inhibition was tested in human Ramos B-cells activated with IL-4. Twenty to 24 hours post stimulation, the cells are stained for upregulation of CD23 and analyzed by FACS. Stimulation of the B-cells with IL-4 leads to the activation of the JAK/STAT pathway through phosphorylation of the JAK kinase JAK1 and JAK3, which in turn phosphorylate and activate transcription of factor […].
For the assay, human Ramos B-cells (ATCC, Catalog No. CRL-1596) are cultured in RPMI 1640 medium (Cellgro, Catalog No. 10-040-CM) containing 10% fetal bovine serum (JRH, Catalog No. 12106-500M) according to the propagation protocol supplied with the cells, and maintained at a density of approximately 3.5×10^5 cells/ml. The day before the assay, the cells are diluted to 3.5×10^5 cells/ml to insure they are in the logorithmic growth phase. The cells are spun down, and suspended in RPMI 1640 medium containing 5% fetal bovine serum to a density of 3.5×10^4 cells/ml and aliquots dispensed into a 96-well tissue culture plate. Cells are incubated with test compound (dissolved in DMSO) or DMSO (control) for 1 hr at 37° C. and then stimulated with IL-4 (Pepotech, Catalog No. 200-04) for 20-24 hours (final concentration is 50 Units/ml). Cells are then spun down, stained with anti-CD23-PE antibody (BD Pharmigen, Catalog No.555711) and analyzed by FACS.

[1] = TABLE 2, IC50 CHMC degranulation (tryptase) / IC50 IL-4 Ramos CD23
[2] = TABLE 1, IC50 CHMC degranulation / IC50 IL-4 Ramos CD23, minimum ratio, calculated using Syk IC50 of 50 μM (upper limit of assay)

| SMILES | IC50 Ratio (Syk/JAK) [1] | IC50 Ratio (Syk/JAK) [2] |
| --- | --- | --- |
| C[C@@H]1Oc2ccc(Nc3nc(Nc4ccc(C(N)=O)cc4)ncc3F)cc2NC1=O [Cmpd 42] | 32 |  |
| CC(=O)N(C)c1ccc(Nc2ncc(F)c(N3CCN(C)CC3)n2)cc1 [Cmpd 20] |  | 14 |
| O=C(Nc1ccc(Nc2ncc(F)c(NC3CCCCC3)n2)cc1)c1ccccc1 [Cmpd 74] | 14 |  |
| O=C(O)C1CCC(Nc2nc(Nc3ccc4c(c3)OCCO4)ncc2F)CC1 (stereo not shown) [Cmpd 18] |  | 20 |
| COC(=O)c1ccc(Nc2ncc(F)c(Nc3ccc(OC)c(Cl)c3)n2)cc1 [Cmpd 25] |  | 13 |
| COc1ccc(Nc2nc(Nc3cc(Cl)c(OC)c(Cl)c3)ncc2F)cc1Cl [Cmpd 21] |  | 14 |
| COc1ccc(Nc2ccnc(Nc3ccc(OC)c(-c4ccccc4)c3)n2)cc1-c1ccccc1 [Cmpd 15] |  | 24 |
| CN1CCN(c2ccc(Nc3ncc(F)c(NC4CCC4)n3)cc2CO)CC1 [Cmpd 39] | 59 |  |
| COc1ccc(Nc2nc(Nc3ccc(C(N)=O)c(Cl)c3)ncc2F)cc1Cl [Cmpd 83] | 10 |  |
| COc1ccc(Nc2ncc(F)c(Nc3ccc(OCc4nc(C)no4)cc3)n2)cc1Cl [Cmpd 51] | 25 |  |
| CN1CCN(c2ccc(Nc3ncc(F)c(Nc4cc(C5CC5)n[nH]4)n3)cc2Cl)CC1 [Cmpd 30] | 85 |  |
| CNC(=N)COc1ccc(Nc2nc(Nc3ccc4c(c3)OCCO4)ncc2F)cc1 [Cmpd 81] | 11 |  |
| Cc1cc(Nc2ncc(F)c(NC3CCCC3C(N)=O)n2)ccc1N1CCN(C)CC1 (stereo not shown) [Cmpd 2] |  | 155 |
| CCN(CC)CCNC(=O)c1ccc(Nc2ncc(F)c(Nc3cc(OC)cc(OC)c3)n2)cc1 [Cmpd 47] | 29 |  |
| COc1c(C)cc(Nc2ncc(F)c(NC3=NCCN3)n2)cc1C [Cmpd 43] | 31 |  |
| NCc1ccc(Nc2ncc(F)c(Nc3ccc(CN)cc3)n2)cc1 [Cmpd 32] | 65 |  |
| COc1ccc(N(C)c2nc(Nc3cccc(-c4ncco4)c3)ncc2F)cc1OC [Cmpd 41] | 32 |  |
| COc1ccc(Nc2nc(Nc3ccc(N4CCN(C)CC4)c(C(N)=O)c3)ncc2F)cc1Cl [Cmpd 50] | 26 |  |
| CN1CCN(C(=O)CNc2cccc(Nc3ncc(F)c(Nc4cccc(NCCO)c4)n3)c2)CC1 [Cmpd 56] | 21 |  |
